# Residue numbers refer to the chain shown, from its start. Read-outs that look alike come from different tables or passages of the source.
# Legend:
# TAF1L(2) = target: T1, TAF1L(2) (Homo sapiens, UniProt Q8IZX4); assay: BromoScan selectivity panel (Kd); type: binding
# T1 construct: TAF1L(2)
# T1 sequence (Q8IZX4 1517-1626 limits assumed): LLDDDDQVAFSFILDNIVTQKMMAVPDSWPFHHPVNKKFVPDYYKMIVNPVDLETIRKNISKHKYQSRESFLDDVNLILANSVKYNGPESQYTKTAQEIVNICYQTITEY
# BRD2(2) = target: T2, BRD2(2) (Homo sapiens, UniProt P25440); assay: BromoScan selectivity panel (Kd); type: binding
# T2 construct: the bromodomain-containing protein is BRD2(2)
# T2 sequence (P25440 344-453 limits assumed): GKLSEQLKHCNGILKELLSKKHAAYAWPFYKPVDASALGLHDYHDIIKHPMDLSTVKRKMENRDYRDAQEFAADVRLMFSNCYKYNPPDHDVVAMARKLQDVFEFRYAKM
# FALZ = FALZ (Homo sapiens, UniProt Q12830); assay: BromoScan selectivity panel (Kd); type: binding
# ATAD2B = target: T3, ATAD2B (Homo sapiens, UniProt Q9ULI0); assay: BromoScan selectivity panel (Kd); type: binding
# T3 sequence (Q9ULI0 953-1085 limits assumed): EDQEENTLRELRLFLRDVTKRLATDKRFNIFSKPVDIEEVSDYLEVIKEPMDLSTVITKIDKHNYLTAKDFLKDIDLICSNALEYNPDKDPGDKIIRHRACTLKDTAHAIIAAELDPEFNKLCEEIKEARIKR
# WDR9(2) = target: T4, WDR9(2) (Homo sapiens, UniProt Q9NSI6); assay: BromoScan selectivity panel (Kd); type: binding
# T4 construct: WDR9(2)
# T4 sequence (Q9NSI6 1313-1418 limits assumed): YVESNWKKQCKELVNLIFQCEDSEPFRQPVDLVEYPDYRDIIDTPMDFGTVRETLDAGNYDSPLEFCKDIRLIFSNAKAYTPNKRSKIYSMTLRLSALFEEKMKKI
# BAZ2B = target: T5, BAZ2B (Homo sapiens, UniProt Q9UIF8); assay: BromoScan selectivity panel (Kd); type: binding
# T5 sequence (Q9UIF8 2054-2168 limits assumed): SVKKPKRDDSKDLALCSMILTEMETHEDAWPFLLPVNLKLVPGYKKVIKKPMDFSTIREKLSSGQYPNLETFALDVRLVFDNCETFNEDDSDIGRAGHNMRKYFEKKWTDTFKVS
# CBP = CBP (Homo sapiens, UniProt Q92793); assay: BromoScan selectivity panel (Kd)
# Chain of CBP (Q92793 1081-1197 limits assumed): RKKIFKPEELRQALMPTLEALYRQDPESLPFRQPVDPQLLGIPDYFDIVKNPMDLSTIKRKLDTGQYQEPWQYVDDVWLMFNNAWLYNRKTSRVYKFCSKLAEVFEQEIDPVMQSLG
# TAF1(2) = target: T6, TAF1(2) (Homo sapiens, UniProt P21675); assay: BromoScan selectivity panel (Kd); type: binding
# T6 construct: TAF1(2)
# T6 sequence (P21675 1519-1628 limits assumed): T1 sequence (Q8IZX4 1517-1626 limits assumed) with M46V, V51M, I102V, I107L
# BAZ2A = target: T7, BAZ2A (Homo sapiens, UniProt Q9UIF9); assay: BromoScan selectivity panel (Kd); type: binding
# T7 sequence (Q9UIF9 1796-1899 limits assumed): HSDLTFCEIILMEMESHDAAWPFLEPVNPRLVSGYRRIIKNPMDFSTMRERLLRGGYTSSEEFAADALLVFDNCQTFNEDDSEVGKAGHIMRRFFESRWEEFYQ
# BRPF3 = target: T8, BRPF3 (Homo sapiens, UniProt Q9ULD4); assay: BromoScan selectivity panel (Kd); type: binding
# T8 sequence (Q9ULD4 589-693 limits assumed): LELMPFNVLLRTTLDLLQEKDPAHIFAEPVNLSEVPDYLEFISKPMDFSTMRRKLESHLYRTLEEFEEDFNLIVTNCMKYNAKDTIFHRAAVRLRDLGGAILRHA
# BRD3(1) = target: T9, BRD3(1) (Homo sapiens, UniProt Q15059); assay: BromoScan selectivity panel (Kd); type: binding
# T9 construct: the bromodomain-containing protein is BRD3(1)
# T9 sequence (Q15059 34-140 limits assumed): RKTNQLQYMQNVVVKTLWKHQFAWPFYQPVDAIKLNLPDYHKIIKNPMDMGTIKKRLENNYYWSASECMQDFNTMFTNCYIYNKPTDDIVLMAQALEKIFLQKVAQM
# TRIM24(PHD Bromo.) = target: T10, TRIM24(PHD Bromo.) (Homo sapiens, UniProt O15164); assay: BromoScan selectivity panel (Kd); type: binding
# T10 construct: TRIM24(PHD Bromo.)
# T10 sequence (O15164 824-1006 limits assumed): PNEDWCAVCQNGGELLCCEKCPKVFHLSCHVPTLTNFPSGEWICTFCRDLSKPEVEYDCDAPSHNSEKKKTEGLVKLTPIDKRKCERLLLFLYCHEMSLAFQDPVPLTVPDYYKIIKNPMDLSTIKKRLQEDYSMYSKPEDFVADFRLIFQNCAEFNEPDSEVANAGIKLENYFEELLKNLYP
# BRD4(1) = target: T11, BRD4(1) (Homo sapiens, UniProt O60885); assay: BromoScan selectivity panel (Kd); type: binding
# T11 construct: the bromodomain-containing protein is BRD4(1)
# [1] = tested on: BRD4-dependent Nut-Midline Carcinoma line 797; assay: Cell viability (ATPlite) in BRD4 dependant cell line 797; settings: for EC50: Homo sapiens
# PERM1(2) = target: T12, PERM1(2) (Homo sapiens, UniProt Q86U86); assay: BromoScan selectivity panel (Kd); type: binding
# T12 construct: PERM1(2)
# T12 sequence (Q86U86 177-287 limits assumed): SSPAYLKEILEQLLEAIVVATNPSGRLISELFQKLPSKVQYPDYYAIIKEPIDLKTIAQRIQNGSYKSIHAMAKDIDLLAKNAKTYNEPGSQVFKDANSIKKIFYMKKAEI
# BRD3(2) = target: T13, BRD3(2) (Homo sapiens, UniProt Q15059); assay: BromoScan selectivity panel (Kd); type: binding
# T13 construct: the bromodomain-containing protein is BRD3(2)
# T13 sequence (Q15059 306-415 limits assumed): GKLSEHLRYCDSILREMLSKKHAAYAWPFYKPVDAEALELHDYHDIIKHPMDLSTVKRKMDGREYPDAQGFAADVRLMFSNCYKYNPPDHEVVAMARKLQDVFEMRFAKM
structure (smiles),measurement,setting,value
"Cc1noc(C)c1-c1ccc(-c2nc3cnccn3c2NC(C)(C)C)cc1 [UMB32, N-(tert-butyl)-2-(4-(3,5-dimethylisoxazol-4-yl)phenyl)imidazo[1,2-a]pyrazin-3-amine]",Kd,"TAF1L(2); Table 8, read-out: Kd (nM) TAF1L(2)",1300 nM
same,Kd,"TAF1L(2); Table 9, read-out: BromoScan Kd, nM TAF1L(2)",1300 nM
same,Kd,"BRD2(2); Table 8, read-out: Kd (nM) BRD2(2)",95 nM
same,Kd,"BRD2(2); Table 9, read-out: BromoScan Kd, nM BRD2(2)",95 nM
same,Kd,"FALZ; Table 8, read-out: Kd (nM) FALZ",≥ 40000 nM
same,Kd,"FALZ; Table 9, read-out: BromoScan Kd, nM FALZ",≥ 40000 nM
same,Kd,"ATAD2B; Table 8, read-out: Kd (nM) ATAD2B",≥ 40000 nM
same,Kd,"ATAD2B; Table 9, read-out: BromoScan Kd, nM ATAD2B",≥ 40000 nM
same,Kd,"WDR9(2); Table 8, read-out: Kd (nM) WDR9(2)",≥ 40000 nM
same,Kd,"WDR9(2); Table 9, read-out: BromoScan Kd, nM WDR9(2)",≥ 40000 nM
same,Kd,"BAZ2B; Table 8, read-out: Kd (nM) BAZ2B",≥ 40000 nM
same,Kd,"BAZ2B; Table 9, read-out: BromoScan Kd, nM BAZ2B",≥ 40000 nM
same,Kd,"CBP; read-out: BromoScan Kd, nM CREBBP, Table 9",4500 nM
same,Kd,"CBP; read-out: Kd (nM) CBP, Table 8",4500 nM
same,Kd,"TAF1(2); Table 8, read-out: Kd (nM) TAF1(2)",560 nM
same,Kd,"TAF1(2); Table 9, read-out: BromoScan Kd, nM TAF1(2)",560 nM
same,Kd,"BAZ2A; Table 8, read-out: Kd (nM) BAZ2A",≥ 40000 nM
same,Kd,"BAZ2A; Table 9, read-out: BromoScan Kd, nM BAZ2A",≥ 40000 nM
same,Kd,"BRPF3; Table 8, read-out: Kd (nM) BRPF3",≥ 40000 nM
same,Kd,"BRPF3; Table 9, read-out: BromoScan Kd, nM BRDF3",≥ 40000 nM
same,Kd,"BRD3(1); Table 8, read-out: Kd (nM) BRD3(1)",35 nM
same,Kd,"BRD3(1); Table 9, read-out: BromoScan Kd, nM BRD3(1)",35 nM
same,Kd,"TRIM24(PHD Bromo.); Table 8, read-out: Kd (nM) TRIM24(PHD Bromo.)",≥ 40000 nM
same,Kd,"TRIM24(PHD Bromo.); Table 9, read-out: BromoScan Kd, nM TRIM24(PHD, Bromo.)",≥ 40000 nM
same,Kd,"BRD4(1); Table 8, read-out: Kd (nM) BRD4(1)",80 nM
same,Kd,"BRD4(1); Table 9, read-out: BromoScan Kd, nM BRD4(1)",80 nM
same,EC50,[1],1.13 µM
same,EC50,[1]; read-out: 797--EC50 (μM),0.724 µM
same,EC50,[1]; read-out: BRD4 EC50 (μM),1.1 µM
same,cellular activity in the BRD4 dependant cell line,"[1]; text b618, b620",shows cellular activity in the BRD4 dependant cell line
same,Kd,"PERM1(2); Table 8, read-out: Kd (nM) PERM1(2)",≥ 40000 nM
same,Kd,"PERM1(2); Table 9, read-out: BromoScan Kd, nM PERM1(2)",≥ 40000 nM
same,Kd,"BRD3(2); Table 8, read-out: Kd (nM) BRD3(2)",38 nM
same,Kd,"BRD3(2); Table 9, read-out: BromoScan Kd, nM BRD3(2)",38 nM
